The source made the active and inactive calls. No cut-off for these calls is given here.
How the values were obtained:
HCT-116 = assay: Antitumor activity against human HCT-116 cells xenografted in BALB/c nude mouse assessed as reduction in tumor volume at 30 mg/kg, ip administered once every 3 days for 12 days and measured every 2 days; assay type: functional, organism-based; settings: time 12.0 day
[1] = Toxicity against BALB/c nude mouse xenografted with human HCT-116 cells assessed as body weight loss at 30 mg/kg, ip administered once every 3 days for 12 days and measured every 2 days; assay type: organism-based; settings: in vivo, 288 h, time 12 day

Q: Which results are given for `O=c1[nH]cc(F)c(=O)[nH]1` [FLUOROURACIL]?
A: Activity (HCT-116): Active; Activity [1]: Toxic

From ChEMBL document CHEMBL5233288, “Ginkgo Biflavones Cause p53 Wild-Type Dependent Cell Death in a Transcription-Independent Manner of p53” (J Nat Prod, 2023)
